Experimental data: patent US20050153872A1, “Methods and compositions for the treatment of infection” (priority 2004, published 2005)
Converted amounts (≈) assume the structure as drawn. Read-outs that look alike come from different tables or passages of the source.

Columns and labels:
[1] = test system: Staphylococcus aureus MRSA 02-18; experiment: In vivo protection of infected mice; parameters: species or system Kungming mice; conditions: Staphylococcus aureus, MRSA
Experimental: (§1) The following experiments were performed by Pharmacology Lab, National Sichuan antibiotic industril institute, Chengdu, Sichuan.
(§2) The agents described above were diluted with sterilized water to final concentrations of 10 mg/L, 5 mg/Land 2.5 mg/L.
(§3) Staphylococcus aureus ATCC BAA-42(MRSA) and enterococcus faecalis ATCC 700802 were used as control strains.
(§4) 170 mice (Kungming mice: 18˜22 g, 85 males and 85 females) were randomly divided into four groups and injected with a fatal dosage of staphylococci, enterococcus and E. coli intraperitoneally. […] Mice were inspected every 24 hours for 7-14 days. Dead mice were counted as positive results. The results are depicted in Table 3 and FIGS. 4 and 5A-B.

[2] = test system: Staphylococcus aureus MRSA BAA-42; experiment: In vivo protection of infected mice; parameters: species or system Kungming mice; conditions: Staphylococcus aureus
Experimental: as §1, §2, §3, §4

[3] = test system: Enterococcus faecalis ATCC 700802; experiment: In vivo protection of infected mice; parameters: species or system Kungming mice; conditions: Enterococcus faecalis
Experimental: as §1, §2, §3, §4

[4] = test system: ATCC 700802 VRE cells; experiment: Electron micrographs of bactericidal effects of Ph-EF; format: cell-based, Enterococcus; conditions: Ph-EF 10 ug/ml 0.5 and 2 hr; Ph-SA 10 ug/ml 2 hr; vancomycin 20 ug/ml 2 hr
Experimental: Electron Microraphs of Bactericidal Effects of Ph-EF Against ATCC 700802 VRE Cells (1% Phosphotungstic Acid, 15.000×).
Bactericidal effects of ph-EF were tested and monitored by electron microscopy. FIG. 16 depicts electron micrographs of (a) untreated cells; (b) and (c) cells treated with Ph-EF (10 ug/ml) for 0.5 hr; (d) untreated cells for 2 hr; (e) cells treated by Ph-SA (10 ug/ml) for 2 hr; (f) cells treated with vancomycin (20 ug/ml) for 2 hr; (g) and (h) cells treated with Ph-EF (10 ug/ml) for 2 hrs.

[5] = test system: ATCC 700802 VRE cells; experiment: Ph-EF protection of ATCC 700802 infected mice; format: in vivo; conditions: for Death distribution in hours 24 h / Death distribution in hours 48 h / Death distribution in hours 72 h / Death distribution in hours 96 h / Death distribution in hours 120 h / Death distribution in hours 144 h / Death distribution in hours 168 h / Number of Death: 5 animals
Experimental: To assess in vivo effects of Ph-EF, mice were injected with a fatal dosage of ATCC 700802 VRE cells intraperitoneally. […] Mice were inspected every 24 hours for 7-14 days. Dead mice would be counted as positive results.

[6] = test system: Escherichia coli 02-1-65; experiment: In vivo protection of infected mice; parameters: species or system Kungming mice; conditions: i.p. infection 3.3 × 10^5 cfu/ml, read-out: ED50
Experimental: as §1
(§5) The agents described above were diluted with sterilized water to final concentrations of 10 mg/L, 5 mg/Land 2.5 mg/L. […]
as §4

[7] = test system: Staphylococcus aureus ATCC 29213; experiment: In vivo protection of infected mice; parameters: species or system Kungming mice; conditions: Staphylococcus aureus, i.p. infection 3.6 × 10^5 cfu/ml, read-out: ED50
Experimental: as §1, §5, §4

[8] = test system: Staphylococcus aureus MRSA 02-18; experiment: microbe, parasite or virus in culture; format: cell-based; conditions: Staphylococcus aureus MRSA 02-18; read-out: MIC
[9] = test system: Staphylococcus aureus MRSA BAA-42; experiment: microbe, parasite or virus in culture; format: cell-based; conditions: Staphylococcus aureus MRSA BAA-42; read-out: MIC
[10] = test system: Vancomycin-resistant Enterococcus ATCC 700802; conditions: for inhibition of VRE cell growth: 10 ug/ml, ATCC 700802
[11] = test system: Staphylococcus aureus ATCC 29213; experiment: MIC against challenge strain (Table 3); format: cell-based; conditions: ATCC29213, read-out: MIC
[12] = test system: Escherichia coli 02-1-65; experiment: MIC against challenge strain (Table 3); format: cell-based; conditions: 02165, read-out: MIC
[13] = test system: Staphylococcus epidermidis MSSE strain (21); experiment: In vitro antibacterial activity (MIC), clinical isolates; format: cell-based; conditions: Staphylococcus epidermidis, 21 MSSE clinical isolates
Experimental: (§6) The following experiments were performed by Lab. of Pharmacology, National Sichuan antibiotic industril institute, Chengdu, Sichuan.
(§7) The following agents were used to test the in vitro activity of Ph-SA:
(§8) All the bacterial strains used in the experiments were clinical isolates collected from Sichuan and Beijing in 2002 and identified by West China Hospital, Sichuan University and Chongqing University of Medical Sciences with API system. The following strains were used in the experiments detailed below: Staphylococcus aureus 168 strains (MRSA 80 strains and MSSA 88 strains) Staphylococcus epidermidis 46 strains (MRSE 25 strains and MSSE 21 strains), Enterococcus 20 strains, and Acenetobactor 20 strains. Staphylococcus aureus ATCC25923, 29213 and BAA-42 were used as control strains. Bacterial strains were contacted with one of the above described compounds and MIC50, MIC90 and MICScope were determined.

[14] = test system: Staphylococcus aureus MRSA strain (80); experiment: as above; format: cell-based; conditions: Staphylococcus aureus, MRSA
Experimental: as §6, §7, §8

[15] = test system: Staphylococcus aureus MSSA strain (88); experiment: as above; format: cell-based; conditions: Staphylococcus aureus, 88 MSSA clinical isolates
Experimental: as §6, §7, §8

[16] = test system: Enterococcus (20); experiment: as above; format: cell-based; conditions: 20 Enterococcus clinical isolates
Experimental: as §6, §7, §8

[17] = test system: Acenetobactor (20); experiment: as above; format: cell-based
Experimental: as §6, §7, §8

[18] = test system: Staphylococcus epidermidis MRSE strain (25); experiment: as above; format: cell-based; conditions: Staphylococcus epidermidis, MRSE
Experimental: as §6, §7, §8

[19] = test system: Enterococcus faecalis ATCC 700802; experiment: microbe, parasite or virus in culture; format: cell-based; conditions: ATCC700802; Enterococcus faecalis ATCC 700802; read-out: MIC
[20] = test system: vancomycin-sensitive Enterococcus ATCC29212; conditions: 3 ug/ml; ATCC 29212 cells

CN[C@H](CC(C)C)C(=O)N[C@H]1C(=O)N[C@@H](CC(N)=O)C(=O)N[C@H]2C(=O)N[C@H]3C(=O)N[C@H](C(=O)N[C@H](C(=O)O)c4cc(O)cc(O)c4-c4cc3ccc4O)[C@H](O)c3ccc(c(Cl)c3)Oc3cc2cc(c3O[C@@H]2O[C@H](CO)[C@@H](O)[C@H](O)[C@H]2O[C@H]2C[C@](C)(N)[C@H](O)[C@H](C)O2)Oc2ccc(cc2Cl)[C@H]1O [Vancomycin]
ED50 [1]: 2.39 mg/kg
ED50 ([1]; 1 h): 2.27 mg/kg
ED50 [2]: 3.53 mg/kg
ED50 ([2]; 1 h): 3.64 mg/kg
ED50 ([3]; ATCC700802): 2.64 mg/kg
ED50 ([3]; ATCC700802, 1 h): 3.17 mg/kg
morphological alteration in VRE cells (electron micrographs) [4]: no morphological alteration
Death distribution in hours 24 h ([5]; 5 mg/kg intravenously): 3
Death distribution in hours 48 h ([5]; 5 mg/kg intravenously): 2
Death distribution in hours 72 h ([5]; 5 mg/kg intravenously): 1
Death distribution in hours 96 h ([5]; 5 mg/kg intravenously): 0
Death distribution in hours 120 h ([5]; 5 mg/kg intravenously): 0
Death distribution in hours 144 h ([5]; 5 mg/kg intravenously): 0
Death distribution in hours 168 h ([5]; 5 mg/kg intravenously): 0
Number of Death ([5]; 5 mg/kg intravenously): 3
Death distribution in hours 24 h ([5]; 10 mg/kg intravenously): 1
Death distribution in hours 48 h ([5]; 10 mg/kg intravenously): 1
Death distribution in hours 72 h ([5]; 10 mg/kg intravenously): 0
Death distribution in hours 96 h ([5]; 10 mg/kg intravenously): 0
Death distribution in hours 120 h ([5]; 10 mg/kg intravenously): 0
Death distribution in hours 144 h ([5]; 10 mg/kg intravenously): 0
Death distribution in hours 168 h ([5]; 10 mg/kg intravenously): 0
Number of Death ([5]; 10 mg/kg intravenously): 1
ED50 ([6]; Escherichia coli, 02165, 2nd Time (value in parentheses), i.v. treatment): > 30.8 mg/kg
ED50 ([6]; Escherichia coli, 02165, 1 h, 1st Time, i.v. treatment after one hour): > 30.8 mg/kg
ED50 ([7]; ATCC29213, 2nd Time (value in parentheses), i.v. treatment): 2.09 mg/kg
ED50 ([7]; ATCC29213, 1 h, 1st Time, i.v. treatment after one hour): 2.32 mg/kg
MIC [8]: 0.06 µg/mL (≈ 0.0414 µM)
MIC [9]: 0.06 µg/mL (≈ 0.0414 µM)
inhibition of VRE cell growth [10]: only partially inhibited VRE cell growth
MIC [11]: 0.5 µg/mL (≈ 0.345 µM)
MIC [12]: 128 µg/mL (≈ 88.3 µM)
MIC [13]: 0.06 to 0.5 µg/mL (≈ 0.0414 to 0.345 µM)
MIC50 ([13]; read-out: MIC50): 0.5 µg/mL (≈ 0.345 µM)
MIC90 ([13]; read-out: MIC90): 0.5 µg/mL (≈ 0.345 µM)
MIC50 [14]: 0.25 µg/mL (≈ 0.173 µM)
MIC90 [14]: 1 µg/mL (≈ 0.69 µM)
MIC ([14]; read-out: MIC Scope): 0.004 to 2 µg/mL (≈ 0.00276 to 1.38 µM)
MIC50 ([15]; read-out: MIC50): 0.5 µg/mL (≈ 0.345 µM)
MIC90 ([15]; read-out: MIC90): 1 µg/mL (≈ 0.69 µM)
MIC ([15]; read-out: MIC Scope): 0.03 to 1 µg/mL (≈ 0.0207 to 0.69 µM)
MIC [16]: 0.5 to 50 µg/mL (≈ 0.345 to 34.5 µM)
MIC50 ([16]; read-out: MIC50): 1 µg/mL (≈ 0.69 µM)
MIC90 ([16]; read-out: MIC90): 2 µg/mL (≈ 1.38 µM)
MIC50 [17]: > 128 µg/mL
MIC90 [17]: > 128 µg/mL
MIC50 [18]: 0.5 µg/mL (≈ 0.345 µM)
MIC90 [18]: 1 µg/mL (≈ 0.69 µM)
MIC ([18]; read-out: MIC Scope): 0.25 to 2 µg/mL (≈ 0.173 to 1.38 µM)
MIC [19]: 16 µg/mL (≈ 11 µM)

B1: Ph-EF: Colicin Ia linked to the N-terminus of the E. facaelis pheromone cCF10 (protein)
chain: SDPVARGITNPGAESLGYDSDGHEIMAVASPIYVASNPPRVASPVFHGTPPAWSSFGNKTIWGGNEWVASPDSPTRSDIEKRDKEITAYKNTLSAQQKENENKRTEAGKRLSAAIAAREKDENTLKTLRAGNADAADITRQEFRLLQAELREYGFRTEIAGYDALRLHTESRMLFADADSLRISPREARSLIEQAEKRQKDAQNADKKAADMLAEYERRKGILDTRLSELEKNGGAALAVLDAQQARLLGQQTRNDRAISEARNKLSSVTESLNTARNALTRAEQQLTQQKNTPDGKTIVSPEKFPGRSSTNHSIVVSGDPRFAGTIKITTSAVIDNRANLNYLLSHSGLDYKRNILNDRNPVVTEDVEGDKKIYNAEVALAEWDKLRQRLLDARNKITSAESAVASNSARNNLSARTNEQKHANDALNALLKEKENIRNQLSGINQKIAEEKRKQDELKATKDAINFTTEFLKSVSEKYGAKAEQLAREMAGQAKGKKIRNVEEALKTYEKYRADINKKINAKDRAAIAAALESVKLSDISSNLNRFSRGLGYAGKFTSLADWITEFGKAVARGTENWRPLFVKTETIIAGNAATALVALALVFSILTGSALGIIGYGLLMAVTGALIDESLVEKANKFWGILVTLVFV
modifications: Colicin Ia linked to E. facaelis pheromone cCF10
morphological alteration in VRE cells (electron micrographs) [4]: substantial morphological alteration
Death distribution in hours 24 h ([5]; 5 mg/kg intravenously): 0
Death distribution in hours 48 h ([5]; 5 mg/kg intravenously): 1
Death distribution in hours 72 h ([5]; 5 mg/kg intravenously): 0
Death distribution in hours 96 h ([5]; 5 mg/kg intravenously): 0
Death distribution in hours 120 h ([5]; 5 mg/kg intravenously): 0
Death distribution in hours 144 h ([5]; 5 mg/kg intravenously): 0
Death distribution in hours 168 h ([5]; 5 mg/kg intravenously): 0
Number of Death ([5]; 5 mg/kg intravenously): 1
Death distribution in hours 24 h ([5]; 10 mg/kg intravenously): 0
Death distribution in hours 48 h ([5]; 10 mg/kg intravenously): 0
Death distribution in hours 72 h ([5]; 10 mg/kg intravenously): 0
Death distribution in hours 96 h ([5]; 10 mg/kg intravenously): 0
Death distribution in hours 120 h ([5]; 10 mg/kg intravenously): 0
Death distribution in hours 144 h ([5]; 10 mg/kg intravenously): 0
Death distribution in hours 168 h ([5]; 10 mg/kg intravenously): 0
Number of Death ([5]; 10 mg/kg intravenously): 0
protection against infection in mice ([5]; ATCC 700802 VRE i.p., agent i.v.): effectively prevent Enterococcus infection in mice
inhibition of VRE cell growth [10]: effectively inhibited VRE cell growth
bactericidal effect relative to vancomycin on a molar basis ([10]; Ph-EF 70,000 daltons vs vancomycin 1456 daltons): almost one hundred times greater
inhibition of cell growth [20]: inhibited cell growth
